Laboratory results reported in patent publication US20130217655A1, “COMPOSITIONS FOR TREATING PSORIASIS OF THE SCALP” (Dermipsor Ltd., priority 2010, published 2013).

Experiment: skin penetration of calcipotriol from the formulation
Conditions: calcipotriol in the present formulation, topical

C=C1/C(=C\C=C2/CCC[C@]3(C)[C@@H]([C@H](C)/C=C/[C@@H](O)C4CC4)CC[C@@H]23)C[C@@H](O)C[C@@H]1O [Calcipotriol]
penetration of the skin: does not penetrate the skin
